Like-named read-outs stand apart in the source and are kept apart here.
What was measured:
[1] = tested on: patients with IBD (Inflammatory Bowel Disease); experiment: Prospective cohort starting 2 mg/kg AZA for IBD (Example 2): response versus AOX3404A>G, TPMT activity and HLA-G markers
[2] = tested on: patients with Inflammatory Bowel Disease; settings: for Allele frequencies: Deletion allele / Allele frequencies: Insertion Allele: number of alleles (%); for Genotype: Insertion no / Genotype: Insertion yes / Genotype frequencies: Insertion no / Genotype frequencies: Insertion yes: number of patients
[3] = tested on: patients with Inflammatory Bowel Disease; settings: for Genotype frequencies: Insertion no / Genotype frequencies: Insertion yes: number of patients (%); for Allelic frequencies: Deletion allele / Allelic frequencies: Insertion Allele: number of alleles (%)
[4] = of cohort of 182 patients starting 2 mg/kg
[5] = Crohn's Disease Patients, Outcome Failure
[6] = Crohn's Disease Patients, Outcome Response
[7] = Ulcerative Colitis Patients, Outcome Failure
[8] = Ulcerative Colitis Patients, Outcome Response
[9] = number of patients with side effect

In the case of `Cn1cnc([N+](=O)[O-])c1Sc1ncnc2nc[nH]c12` [azathioprine], the non-responders [1, 4] is reported as 44, the responders [1, 4] is reported as 66 and the “those discontinuing treatment due to side effects” value [1, 4] is reported as 72. For the same molecule, the chance of responding ([1]; those with all adverse predictors) was 14%, the chance of responding ([1]; those with no adverse predictors) was 95% and the “Allele frequencies: Deletion allele” value ([2]; All Patients, Outcome Failure) was 50 (64%). For the same molecule, the “Allele frequencies: Insertion Allele” value ([2]; All Patients, Outcome Failure) was 30 (36%), the “Allele frequencies: Deletion allele” value ([2]; All Patients, Outcome Response) was 39 (34%) and the “Allele frequencies: Insertion Allele” value ([2]; All Patients, Outcome Response) was 75 (65%). For the same molecule, the “Genotype: Insertion no” value ([2]; CD, Fail) was 2, the “Genotype: Insertion yes” value ([2]; CD, Fail) was 17 and the “Genotype: Insertion no” value ([2]; CD, Response) was 15. For the same molecule, the “Genotype: Insertion yes” value ([2]; CD, Response) was 14, the “Allele frequencies: Deletion allele” value [2, 5] was 14 (37%) and the “Allele frequencies: Insertion Allele” value [2, 5] was 24 (63%). For the same molecule, the “Allele frequencies: Deletion allele” value [2, 6] was 45 (69%), the “Allele frequencies: Insertion Allele” value [2, 6] was 18 (31%) and the “Genotype: Insertion no” value ([2]; UC, Fail) was 3. For the same molecule, the “Genotype: Insertion yes” value ([2]; UC, Fail) was 18, the “Genotype: Insertion no” value ([2]; UC, Response) was 10 and the “Genotype: Insertion yes” value ([2]; UC, Response) was 18. For the same molecule, the “Allele frequencies: Deletion allele” value [2, 7] was 16 (38%), the “Allele frequencies: Insertion Allele” value [2, 7] was 26 (62%) and the “Allele frequencies: Deletion allele” value [2, 8] was 45 (62%). The “Allele frequencies: Insertion Allele” value [2, 8] was 21 (37%), the “Genotype frequencies: Insertion no” value ([2]; all patients, Outcome Fail) was 21 and the “Genotype frequencies: Insertion yes” value ([2]; all patients, Outcome Fail) was 30. For the same molecule, the “Genotype frequencies: Insertion no” value ([2]; all patients, Outcome Response) was 50, the “Genotype frequencies: Insertion yes” value ([2]; all patients, Outcome Response) was 32 and the “Fisher's exact test OR” value ([2]; allele frequencies, All Patients) was “OR = 3.2”. For the same molecule, the “Fisher's exact test OR” value ([2]; allele frequencies, Crohn's Disease Patients) was “OR = 4.2”, the “Fisher's exact test OR” value ([2]; allele frequencies, Ulcerative Colitis Patients) was “OR = 3.4” and the “Fisher's exact test OR” value ([2]; genotype frequencies, all patients) was “OR = 2.2,”. The “Fisher's exact test OR” value ([2]; genotype, CD) was “OR = 9,”, the “Fisher's exact test OR” value ([2]; genotype, UC) was “OR = 3,” and the “patients identified as responders to therapy” value ([2]; of 100 patients completing minimum three months, steroid withdrawal and Harvey Bradshaw index less than four) was 50 patients. The “withdrew due to intolerable side-effects” value ([2]; of the 140 patients recruited) was 40.
`CN(Cc1cnc2nc(N)nc(N)c2n1)c1ccc(C(=O)N[C@@H](CCC(=O)O)C(=O)O)cc1` [methotrexate] was tested, and the “association between side effects and folate supplementation” value ([3]; 94 patients on folate, 39 never on folate) was “No association”, the “Genotype frequencies: Insertion no” value ([3]; Outcome Fail (91 pts.)) was 21 (23%%) and the “Genotype frequencies: Insertion yes” value ([3]; Outcome Fail (91 pts.)) was 70 (77%). For the same molecule, the “Allelic frequencies: Deletion allele” value ([3]; Outcome Failure) was 86 (47%), the “Allelic frequencies: Insertion Allele” value ([3]; Outcome Failure) was 96 (52%) and the “Genotype frequencies: Insertion no” value ([3]; Outcome Response (91 pts.)) was 40 (44%). For the same molecule, the “Genotype frequencies: Insertion yes” value ([3]; Outcome Response (91 pts.)) was 51 (56%), the “Allelic frequencies: Deletion allele” value ([3]; Outcome Response) was 113 (62%) and the “Allelic frequencies: Insertion Allele” value ([3]; Outcome Response) was 69 (37%). The “Fisher's exact test OR” value ([3]; allelic frequencies, response vs failure) was “OR = 1.8”, the “Fisher's exact test OR” value ([3]; genotype frequencies, response vs fail) was “OR = 2.6,” and the “patients developed side effects” value ([3]; methotrexate group) was 45 patients. The “patients withdrawn from therapy as a direct consequence of their side-effect” value ([3]; methotrexate group) was 21 patients, the abdominal pain [3, 9] was “one” and the alopecia [3, 9] was “one”. For the same molecule, the “haematological abnormalities including neutropenia” value [3, 9] was “four”, the minor infections [3, 9] was “four” and the mucositis [3, 9] was “two”. For the same molecule, the “muscle and joint pains” value [3, 9] was “three”, the nausea [3, 9] was 16 and the skin rash [3, 9] was “three”. For the same molecule, the “transient LFT abnormalities” value [3, 9] was 10, the “patients responded to treatment (percent)” value ([3]; of 187 patients completing at least three months of therapy) was 51% and the “patients responded to treatment” value ([3]; of 187 patients completing at least three months of therapy, response = steroid withdrawal or documented efficacy) was 97 patients. For the same molecule, the “response to treatment between administration regimes” value ([3]; oral vs subcutaneous vs intramuscular induction progressing to oral) was “no difference in the response to treatment”.

Reference: US20110105538A1, “DRUG RESPONSE MARKERS” (GUY'S & ST THOMAS'S NHS FOUNDATION TRUST, priority 2008, published 2011)
